{"source": "ChEMBL document CHEMBL1131557", "about": "(Bioorg Med Chem Lett, 1998)", "key": {"[1]": {"biological_target": "Histamine H1 receptor (Cavia porcellus, UniProt P31389)", "sequence (P31389 whole entry)": "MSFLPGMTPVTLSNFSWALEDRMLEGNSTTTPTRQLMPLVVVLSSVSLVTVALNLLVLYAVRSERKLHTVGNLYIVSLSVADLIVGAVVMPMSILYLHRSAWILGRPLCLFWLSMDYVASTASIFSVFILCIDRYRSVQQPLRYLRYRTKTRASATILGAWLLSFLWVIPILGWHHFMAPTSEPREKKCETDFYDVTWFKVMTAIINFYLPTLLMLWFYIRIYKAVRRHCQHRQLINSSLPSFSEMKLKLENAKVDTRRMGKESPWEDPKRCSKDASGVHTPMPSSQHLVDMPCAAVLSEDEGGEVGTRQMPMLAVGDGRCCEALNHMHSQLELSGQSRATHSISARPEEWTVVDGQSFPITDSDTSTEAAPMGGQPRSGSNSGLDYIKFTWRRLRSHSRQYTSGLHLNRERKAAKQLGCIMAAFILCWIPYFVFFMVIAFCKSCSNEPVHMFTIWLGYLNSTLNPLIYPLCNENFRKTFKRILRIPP", "assay": "Binding affinity to H-1 receptor was determined in guinea pig brain tissue using [3H]- […] ligand"}, "[2]": {"biological_target": "Histamine H3 receptor (Cavia porcellus) (UniProt Q9JI35)", "sequence (Q9JI35 whole entry)": "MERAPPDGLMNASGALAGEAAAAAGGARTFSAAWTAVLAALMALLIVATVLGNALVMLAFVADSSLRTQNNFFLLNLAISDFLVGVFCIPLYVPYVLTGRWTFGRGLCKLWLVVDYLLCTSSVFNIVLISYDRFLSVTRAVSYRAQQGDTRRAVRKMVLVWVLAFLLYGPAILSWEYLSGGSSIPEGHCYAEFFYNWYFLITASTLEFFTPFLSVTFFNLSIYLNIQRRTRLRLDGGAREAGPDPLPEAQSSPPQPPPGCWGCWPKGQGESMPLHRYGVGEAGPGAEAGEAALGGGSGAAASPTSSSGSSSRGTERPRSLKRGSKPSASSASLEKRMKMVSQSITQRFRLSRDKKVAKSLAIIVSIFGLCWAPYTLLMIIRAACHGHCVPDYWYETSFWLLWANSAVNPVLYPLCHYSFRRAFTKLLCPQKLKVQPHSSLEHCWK", "conditions": "Ileum", "description": "(§1) In vitro effective concentration for H-3-mediated contraction of guinea pig ileum"}, "[3]": {"biological_target": "Histamine H1 receptor (Cavia porcellus) (UniProt P31389)", "sequence (P31389 whole entry)": "as the sequence (P31389 whole entry) above", "conditions": "Ileum", "description": "In vitro effective concentration for H1-mediated contraction of guinea pig ileum"}, "[4]": {"biological_target": "Histamine H3 receptor (Cavia porcellus, UniProt Q9JI35)", "sequence (Q9JI35 whole entry)": "as the sequence (Q9JI35 whole entry) above", "assay": "Inhibition of [3H]N-alpha-methylhistamine binding to guinea pig brain Histamine H3 receptor"}, "[5]": {"biological_target": "Histamine H1 receptor (Cavia porcellus) (UniProt P31389)", "assay": "H1-mediated bronchoconstrictor effect after intravenous administration in anesthetized guinea pig", "type": "functional, organism-based", "conditions": "Lung"}, "[6]": {"biological_target": "Histamine H3 receptor (Cavia porcellus) (UniProt Q9JI35)", "conditions": "Ileum", "remark": "listed apart in the source", "description": "as §1"}, "[7]": {"biological_target": "Histamine H1 receptor (Cavia porcellus) (UniProt P31389)", "conditions": "Ileum", "remark": "listed apart in the source", "description": "In vitro effective concentration for H-1-mediated contraction of guinea pig ileum"}}, "data": [{"smiles": "C[C@@H](N)Cc1c[nH]cn1", "values": [{"measurement": "Ki", "setting": "[1]", "result": "> 10", "unit": "µM"}, {"measurement": "pD2", "setting": "[2]", "result": 8.2}, {"measurement": "pD2", "setting": "[3]", "result": 5.4}]}, {"smiles": "C[C@H]1NCCC[C@@H]1c1cnc[nH]1", "values": [{"measurement": "Ki", "setting": "[4]", "result": "> 2000", "unit": "nM"}]}, {"smiles": "c1ccc(C[C@H]2NCC[C@@H]2c2c[nH]cn2)cc1", "values": [{"measurement": "Ki", "setting": "[4]", "result": "> 2000", "unit": "nM"}]}, {"smiles": "C[C@]1(c2c[nH]cn2)CCNC1", "values": [{"measurement": "Ki", "setting": "[4]", "result": 170, "unit": "nM"}]}, {"smiles": "C[C@H]1CNC[C@H]1c1c[nH]cn1", "values": [{"measurement": "Ki", "setting": "[4]", "result": 3, "unit": "nM"}]}, {"smiles": "c1nc(C2CCNC2)c[nH]1", "note": "(stereo not given)", "values": [{"measurement": "Ki", "setting": "[4]", "result": 2, "unit": "nM"}, {"measurement": "ED50", "setting": "[5]", "result": 0.3, "unit": "mg/kg"}]}, {"smiles": "C[C@@H]1CNC[C@H]1c1cnc[nH]1", "values": [{"measurement": "Ki", "setting": "[4]", "result": 5, "unit": "nM"}]}, {"smiles": "C[C@H]1NC[C@@H]1c1c[nH]cn1", "values": [{"measurement": "Ki", "setting": "[4]", "result": 7, "unit": "nM"}, {"measurement": "ED50", "setting": "[5]", "result": "> 0.3", "unit": "mg/kg"}]}, {"smiles": "C[C@H]1C[C@H](c2cnc[nH]2)CN1", "values": [{"measurement": "Ki", "setting": "[4]", "result": 76, "unit": "nM"}]}, {"smiles": "C[C@@H]1NCC[C@@H]1c1c[nH]cn1", "values": [{"measurement": "Ki", "setting": "[4]", "result": 59, "unit": "nM"}]}, {"smiles": "C[C@H]1CNC[C@@H]1c1c[nH]cn1", "values": [{"measurement": "Ki", "setting": "[4]", "result": 2.3, "unit": "nM"}, {"measurement": "Ki", "setting": "[1]", "result": "> 10", "unit": "µM"}, {"measurement": "pD2", "setting": "[6]", "result": 7.5}, {"measurement": "pD2", "setting": "[7]", "result": "< 4"}]}, {"smiles": "CC[C@H]1NCC[C@@H]1c1cnc[nH]1", "values": [{"measurement": "Ki", "setting": "[4]", "result": 150, "unit": "nM"}]}, {"smiles": "C[C@H]1NCC[C@@H]1c1c[nH]cn1", "values": [{"measurement": "Ki", "setting": "[4]", "result": 3, "unit": "nM"}]}]}
